Patent US5886162A, “Lipophilic diakylaminomethylene prodrug derivatives for the inhibition of replication of viruses” (Research Foundation of State University of New York, priority 1991, dated 1999)
Several values for one entry are separate records, joined by “and”; a condition that tells them apart may be missing. Identical values can stand only once. Like-named read-outs stand apart in the source and are kept apart here. Values belong to the compound of their own block, whether it stands above or below them.

Tests used:
[1] = Reverse phase HPLC retention time comparison (lipophilicity); format: physicochemical; conditions: measure of lipophilicity
Text: A series of compounds were produced in accord with the method of Example 1 with various substitutions of 2' deoxycytidine at the N^4 position of the dialkylaminomethylene side chain.
Because of economic considerations 2'-deoxycytidine, was used as the parent nucleoside for comparison purposes in this study.

CEM = test: NCI in vitro anti-HIV drug screen, cytotoxicity, CEM cells; format: cell-based, human; conditions: CEM cell line, 8 micromolar
Procedure: (§1) The protocol used in NCI's Developmental Therapeutics Program AIDS antiviral drug screening program involves plating of susceptible human "host" cells with and without virus in microculture plates, adding various concentrations of test material, incubating the plates for seven days (during which time infected, non-drug treated control cells are largely or totally destroyed by the virus), and then determining the number of remaining viable cells using a calorimetric endpoint. The dose dependent antiviral activity and cytotoxicity were determined and plotted on a graph illustrated as FIG. 1.
(§2) Two parameters are extracted from the curves illustrated in FIG. 1: the EC50, representing the concentration of drug that results in a 50% reduction of the viral cytopathic effect; and the IC50, representing the concentration of drug resulting in 50% cytotoxicity (growth inhibition derived from the normal, uninfected cultures). An in-vitro therapeutic index (TI) may be calculated as the ratio (IC50 /EC50)if both values are obtained.

[2] = as above; format: cell-based, human; conditions: human, cem cells, CEM, read-out: IC50 (cytotoxicity)
Procedure: as §1, §2

[3] = NCI in vitro anti-HIV drug screen, cytotoxicity, LDV-7 cells; format: cell-based; conditions: human, LDV-7, tests of 3-15-88, 3-16-88, 3-25-88, uninfected cultures, seven days, read-out: IC50 (cytotoxicity)
Procedure: as §1, §2

[4] = NCI in vitro anti-HIV drug screen, cytotoxicity, MT-2 cells; format: cell-based; conditions: human, MT-2, tests of 1-29-88 and 3-25-88, uninfected cultures, seven days, read-out: IC50 (cytotoxicity)
Procedure: as §1, §2

viral p24 antigen = test: Viral p24 antigen by enzyme-linked immunosorbent assay in CEM cells; format: cell-based, HIV; conditions: FIG. 2
[5] = NCI in vitro anti-HIV drug screen, cytotoxicity, C3-44 cells; format: cell-based; conditions: human, C3-44, tests of 3-15-88 and 3-16-88, uninfected cultures, seven days, read-out: IC50 (cytotoxicity)
Procedure: as §1, §2

HIV = test: NCI in vitro anti-HIV drug screen, protection of CEM cells against HIV; format: cell-based; conditions: Human immunodeficiency virus 1, CCRF-CEM, 168 h; CEM cell line; read-out: concentration giving complete protection against HIV
Procedure: as §1, §2

[6] = NCI in vitro anti-HIV drug screen, cytotoxicity, five different cell lines; format: cell-based, human; conditions: human; all five different cell lines; IC50 could not be reached up to highest concentration employed; read-out: IC50 (50% cytotoxicity)
Procedure: as §1, §2

[7] = tested on: five different cell lines; test: as above; format: cell-based, human; conditions: all five different cell lines, up to highest concentration employed
Procedure: as §1, §2

[8] = tested on: human immunodeficiency virus (HIV-1, strain LAV); test: NCI in vitro anti-HIV drug screen, antiviral activity; format: cell-based; conditions: for activity against human immunodeficiency virus: HIV-1, strain LAV, NCI In-Vitro Testing Program
Procedure: as §1, §2

[9] = NCI in vitro anti-HIV drug screen, cytotoxicity, ATH8 cells; format: cell-based; conditions: human, ATH8, test of 9-08-87, uninfected cultures, seven days, read-out: IC50 (cytotoxicity)
Procedure: as §1, §2

[10] = Rate of hydrolysis in phosphate buffer by UV spectroscopy and HPLC; format: physicochemical; conditions: 10 mM K-phosphate buffer, pH 7.4, read-out: half-life (t1/2) of hydrolysis (converted)
Procedure: The rates of hydrolysis of the different derivatives appear to depend greatly on the structure of the substituent introduced at the exocyclic NH2 group. For example, the half-life (t1/2) of N^4 -dimethylaminomethylene […] (compound 3 in Table 1) is 5 hours at 37° in 10 mM K-phosphate buffer at pH 7.4, as determined by UV spectroscopy and HPLC analysis. Under the same conditions, N^4 -diisopropylamino-methylene-2'-deoxycytidine (compound 7 in Table 1) has a t1/2 =3 days. Thus, there is an order of magnitude difference in the rate of hydrolysis of these two side chains. The variations in the susceptibility to hydrolysis provide another parameter for the optimization of the pharmacokinetic profile.

[11] = cited from earlier work
viral replication = conditions: background; cited from earlier work

RETENTION TIME [1]: 21.81 min
Structure (SMILES): CC1CCCC(C)N1C=Nc1ccn([C@H]2C[C@H](O)[C@@H](CO)O2)c(=O)n1 (some centres unmarked) [Compound 8, N^4-2,6-Dimethylpiperidino-methylene-2'-deoxycytidine]

RETENTION TIME [1]: 6.44 min
Structure (SMILES): CCN(C=Nc1ccn([C@H]2C[C@H](O)[C@@H](CO)O2)c(=O)n1)CC [Compound 5, N^4 -Diethylaminomethylene-2'-deoxycytidine]

half-life ([10]; same conditions: 37°): 72 h
Structure (SMILES): CC(C)N(C=Nc1ccn([C@H]2C[C@H](O)[C@@H](CO)O2)c(=O)n1)C(C)C [Compound 7, N^4 -Diisopropylamino-methylene-2'-deoxycytidine]

RETENTION TIME [1]: 5.16 min
Structure (SMILES): O=c1nc(N=CN2CCCC2)ccn1[C@H]1C[C@H](O)[C@@H](CO)O1 [Compound 4, N^4 -Pyrrolidinomethylene-2'-deoxycytidine]

The next lines start with the compound.

Structure (SMILES): CN(C)C=Nc1ccn([C@H]2C[C@H](F)[C@@H](CO)O2)c(=O)n1 [DDFC, N^4-dimethylaminomethylene-2', 3'-dideoxy-3'-fluorocytidine]
cytotoxicity at the concentration of complete protection (CEM): without any cytotoxicity
CC50 at 168 h ([2]; test of 1-23-88, highest concentration tested): > 200 nM and > 0.055 µg/mL
CC50 at 168 h ([2]; tests of 1-13-88, 3-15-88, 3-25-88, 3-16-88, uninfected cultures, seven days): > 200 µM and > 56 µg/mL
CC50 at 168 h [3]: > 200 µM and > 56 µg/mL
CC50 at 168 h [4]: > 200 µM and > 56 µg/mL
correlation of protection against cytopathic effect of HIV with p24 antigen (viral p24 antigen): correlated with the decrease in the presence of viral p24 antigen
CC50 at 168 h [5]: > 200 µM and > 56 µg/mL
EC100 (HIV): 8 µM
CC50 at 168 h [6]: > 200 µM
cytotoxicity observed [7]: uniformly very little cytotoxicity
antiviral activity in several cell lines ([8]; FIG. 1, several cell lines): significant antiviral activity
activity against human immunodeficiency virus [8]: Significant activity
CC50 at 168 h [9]: > 200 µM and > 56 µg/mL

Structure (SMILES): O=c1nc(N=CN2CCCCC2)ccn1[C@H]1C[C@H](O)[C@@H](CO)O1 [Compound 6, N^4 -Piperidinomethylene-2' deoxycytidine]
RETENTION TIME [1]: 7.79 min

Structure (SMILES): CN(C)C=Nc1ccn([C@H]2CC[C@@H](CO)O2)c(=O)n1 [DAM-ddC, N^4-dimethylaminomethylene-2', 3'-dideoxycytidine]
activity against human immunodeficiency virus [8]: Significant activity
antiviral activity ([8]; anti-HIV drug screen, FIG. 3): significant antiviral activity

Structure (SMILES): Nc1ccn([C@H]2C[C@H](O)[C@@H](CO)O2)c(=O)n1 [Compound 1, 2'-Deoxycytidine, reference compound]
RETENTION TIME [1]: 2.13 min

Structure (SMILES): CN(C)C=Nc1ccn([C@H]2C[C@H](O)[C@@H](CO)O2)c(=O)n1 [Compound 3, N^4-dimethylaminomethylene-2'-deoxycytidine]
RETENTION TIME [1]: 3.26 min
half-life ([10]; 37°): 5 h

Structure (SMILES): Cc1cn([C@H]2C[C@H](N=[N+]=[N-])[C@@H](CO)O2)c(=O)[nH]c1=O [AZT]
half-life ([11]; human, in vivo): short half-life
therapeutic benefit ([11]; patients with AIDS or AIDS related complex (ARC)): considerable therapeutic benefit
bone marrow toxicity ([11]; patients, ddC compared to AZT, Phase I and II trials): severe bone marrow toxicity

Structure (SMILES): CCCCN(C=Nc1ccn([C@H]2C[C@H](O)[C@@H](CO)O2)c(=O)n1)CCCC [Compound 9, N^4 -Di-n-butylamino-methylene-2'-dioxycytidine]
RETENTION TIME [1]: 125 min

Structure (SMILES): Nc1ccn([C@H]2CC[C@@H](CO)O2)c(=O)n1 [ddC, 2', 3'-dideoxycytidine]
inhibition of viral replication (viral replication): effective in inhibiting viral replication
dose limiting toxicity ([11]; Phase I and II trials): peripheral neuropathy
bone marrow toxicity ([11]; human, in vivo): much less bone marrow suppression

Structure (SMILES): O=c1nc(N=CN2CCOCC2)ccn1[C@H]1C[C@H](O)[C@@H](CO)O1 [Compound 2, N^4 -Morpholinomethylene-2'-deoxycytidine]
RETENTION TIME [1]: 3.07 min

Structure (SMILES): Nc1ncnc2c1ncn2[C@H]1CC[C@@H](CO)O1 [2', 3'-dideoxyadenosine]
inhibition of viral replication (viral replication): effective in inhibiting viral replication
